# Results as given in US20210186977A1, “MEDICAL USES” (priority 2018, published 2021).
# Tested on: Herpes Zoster (varicella zoster virus)
# Assay: Valaciclovir prophylaxis against HZ activation in patients receiving CellProtect infusions
# Type: in vivo, human
# Details: 500 mg twice daily for 6 months following infusions; patients 110 and 111; within 12 months following prophylaxis
# Procedure: Since the development of HZ was clearly associated with the NK cell infusions in the first four patients the last two patients (110 and 111) were treated with high dose valaciclovir, 500 mg twice daily for 6 months following the infusions.
structure (smiles),measurement,value
CC(C)[C@H](N)C(=O)OCCOCn1cnc2c(=O)[nH]c(N)nc21 [valaciclovir],Signs of HZ activation,did not show any signs of HZ activation
